Common to all, as to assay: ≥ marks a high value that may be exact or a test limit, other limits are often not marked, values filed in µg/mL are converted to µM
Experiment [1] deals with Streptococcus gordonii ATCC 10558.
The test system of experiment [2] is Streptococcus gordonii DL1.
In experiment [3] the test system is Streptococcus mutans ATCC 25175.
Experiment [4] relates to Streptococcus mutans GS-5.
The next experiment relates to Streptococcus mutans T8.
The subject of experiment [5] is Streptococcus mutans UA159.
Experiment [6] concerns Streptococcus mutans comD.
Experiment [7] deals with Streptococcus sanguinis ATCC 49295.
Experiment [8] concerns Streptococcus sanguinis NY101.
The test system of experiment [9] is Aeromonas hydrophila IAM 12460.
In a further experiment the test system is Bacillus cereus IAM 1110.
Experiment [10] deals with Bacillus subtilis IAM 1071.
The test system of experiment [11] is Escherichia coli K-12 W3110.
Experiment [12] deals with Micrococcus luteus IAM 1056.
In experiment [13] the test system is Proteus vulgaris IAM 12542.

Each structure is given as a SMILES string.

What is called MIC is the lowest concentration found to suppress growth.

`CC(C)C[C@H](NC(=O)[C@H](CCCN=C(N)N)NC(=O)[C@H](Cc1ccccc1)NC(=O)[C@H](Cc1ccccc1)NC(=O)[C@@H](N)[C@@H](C)O)C(=O)N[C@@H](Cc1ccccc1)C(=O)N[C@@H](CC(N)=O)C(=O)N[C@@H](CCCN=C(N)N)C(=O)O` [TFFRLFNR]: the MIC in experiment [1] is not below 233 µM; in experiment [2], not below 60 µM; in experiment [3] it was not below 60 µM; in [4], not below 233 µM; against Streptococcus mutans T8, not below 60 µM; in experiment [5] it was not below 233 µM. Also, the results for the MIC in [6], in experiment [7] and in experiment [8] were not below 60 µM, not below 233 µM and not below 60 µM, respectively.
`CC[C@H](C)[C@@H]1NC(=O)CNC(=O)[C@@H]2CSSC[C@@H]3NC(=O)[C@H](C(C)C)NC(=O)[C@H](CCCN=C(N)N)NC(=O)[C@H](CCCCN)NC(=O)[C@H](CCCCN)NC(=O)[C@H](CC(N)=O)NC(=O)[C@H](CSSC[C@H](NC(=O)[C@@H](NC(=O)[C@@H](N)Cc4ccccc4)[C@@H](C)O)C(=O)N[C@@H](CC(=O)O)C(=O)N[C@@H](C(C)C)C(=O)N[C@@H](CC(C)C)C(=O)N[C@@H](CO)C(=O)N[C@@H](C(C)C)C(=O)N[C@@H](CCC(=O)O)C(=O)N[C@@H](C)C(=O)N[C@@H](CCCCN)C(=O)NCC(=O)N[C@@H](C(C)C)C(=O)N[C@@H](CCCCN)C(=O)N[C@@H](CC(C)C)C(=O)N[C@@H](CC(N)=O)C(=O)N[C@@H](Cc4cnc[nH]4)C(=O)N[C@@H](C)C(=O)N[C@@H](C)C(=O)N2)NC(=O)[C@H](Cc2ccc(O)cc2)NC(=O)CNC(=O)CNC(=O)[C@H]([C@@H](C)O)NC(=O)[C@H](CCCN=C(N)N)NC(=O)[C@H](CCCN=C(N)N)NC(=O)[C@H](CCCN=C(N)N)NC(=O)[C@H](Cc2ccccc2)NC(=O)[C@H](CC(C)C)NC(=O)[C@H](CSSC[C@@H](C(=O)N[C@@H](CCCN=C(N)N)C(=O)O)NC(=O)[C@H]([C@@H](C)CC)NC3=O)NC(=O)[C@H](Cc2cnc[nH]2)NC1=O` [FTCDVLSVEAKGVKLNHAACGIHCLFRRRTGGYCNKKRVCICR]: the minimum inhibitory concentration (MIC) in experiment [9] came out at 2.12 µM; with Bacillus cereus IAM 1110, 4.24 µM; in experiment [10], 2.12 µM; in experiment [11], 4.24 µM; in [12], 0.0665 µM; in [13] it was 2.12 µM.

Values taken from DBAASP.
